In patent publication US20230073512A1, “MODULATORS OF CULLIN 3 ADAPTOR KBTBD4 AS ANTI-CANCER COMPOUNDS” (UNIVERSITE DE MONTREAL, priority 2019, published 2023):
Read-outs that look alike come from different tables or passages of the source. Each block holds one compound with its values, some of them ahead of it. Residues, ends and D or L forms follow the SMILES beside them. *: point of attachment. Cbz = O=C(OCc1ccccc1)*

Experiments:
[1] = target: T1, RCOR1, LSD1, HDAC2 in OCI-AML1 cells (Homo sapiens, UniProt O60341+Q92769+Q9UKL0); assay: Western Blot of CoREST members; assay type: cell-based; settings: OCI-AML1, UM171 250 nM plus MG132 10 μM or MLN2494 100 nM
T1 construct: nucleoplasmic proteins extracted from shLuc or shKBTBD4- transduced OCI-AML1 cells; endogenous in cells; host or cells: OCI-AML1 cells transduced with shLuc or shKBTBD4
Method: Representative blots (upper panel) showing KBTBD4, RCOR1, LSD1, HDAC2 and Nucleolin (NCL, loading control) protein levels. Quantification of RCOR1 protein levels were evaluated in 3 independent experiments (lower panel).
Representative blots (upper panel) showing CUL3, RCOR1 and TUBA (loading control) protein levels. Quantification of RCOR1 protein levels were evaluated in 2 independent experiments (lower panel).
(§1) Total protein extraction was performed in lysis buffer (25 mM tris ph7.5, 150 mM NaCl, 1% NP-40, protease inhibitors).

[2] = PK assays in mice, intravenous and oral
Method: PK assays were performed in mice (n=3). […] The following pharmacokinetic parameters were calculated.
The compounds were orally administered at 20 mg/kg and plasma samples were collected at 15, 30 minutes and 1, 2, 4, 6 and 8 hours after administration. The following pharmacokinetic parameters were calculated.

[3] = target: T2, RCOR1, LSD1, HDAC2 in CD34+ derived cord blood cells (Homo sapiens, UniProt O60341+Q92769+Q9UKL0); assay: Western Blot of CoREST members in CD34+ cells; assay type: cell-based; settings: UM171 500 nM / MG132 5 μM, 4 hrs
T2 construct: total proteins extracted from d3 expanded CD34+ derived cord blood cells; endogenous in cells; host or cells: d3 expanded human CD34+ cord blood derived cells (primary)
Method: FIG. 15A illustrate a Western Blot analysis of total proteins extracted from d3 expanded CD34+ derived cord blood cells exposed to DMSO, UM171 (500 nM) or UM171/MG132 (5 μM) for 4 hrs. Representative blot showing KBTBD4, RCOR1, LSD1, HDAC2, CUL3 and TUBA as loading control.
as §1

[4] = system: AML samples; assay: Cell proliferation of cancerous samples from patients
[5] = system: CB; assay: Cell proliferation, CB sample of Table 2; settings: read-out: Antineoplastic effect on cell proliferation, IC50
[6] = system: AML3; assay: Cell proliferation of cancerous cell lines; assay type: cell-based; settings: AML3; read-out: Antineoplastic effect of tested compounds on cell proliferation of cancerous AML3 cells, IC50
[7] = system: H3K27Ac and H3K4me2 in OCI-AML5; assay: Flow cytometry of H3K27Ac, H3K4me2 and H3; assay type: cell-based; settings: OCI-AML5, 24 hrs; UM171 250 nM, Panobinostat 5 nM, TCP 10 μM
[8] = system: CD34+ cord blood cells; settings: 7 days culture, UM171 at 5 nM and LSD1 inhibitor (TCP)
Method: (§2) Mouse anti-human antibodies were used to detect CD34 (APC or BV421-BD Biosciences), CD45RA (PE-BD Biosciences), CD86 (PerCP-eFluor710-eBioscience), CD90 (PECY7- BioLegend), and CD201 (APC-BioLegend). Flow cytometry acquisitions were performed on a Canto II cytometer (BD Biosciences) and data analysis was performed using FowJo software (Tree Star, Ashland, Oreg., USA) and GraphPad Prism software. Dead cells were excluded using 7AAD staining.

[9] = system: CD201 and CD86 in OCI-AML1 cells; assay: Flow cytometry of CD201 and CD86 surface expression; assay type: cell-based; settings: Panobinostat 5 nM, TCP 5 μM
Method: as §2

[10] = system: CD201 and CD86 in OCI-AML5; assay: FACS analysis of CD201 and CD86; assay type: cell-based; settings: OCI-AML5, 24 hrs; UM171 250 nM, Panobinostat 5 nM, TCP 10 μM
Method: as §2

[11] = orally administered at 20 mg/kg

- UM171-induced loss of RCOR1 under co-treatment [1]: normal
SMILES: NS(=O)(=O)OC[C@@H]1C[C@@H](n2ccc3c(N[C@H]4CCc5ccccc54)ncnc32)C[C@@H]1O [MLN2494]

- area under the curve (AUC) [2, 11]: 1200 nM·h
- bioavailability (% F) [2, 11]: 19%
- maximal time (tmax) [2, 11]: 48 min
- Cmax ([2]; read-out: maximal concentration (Cmax), orally administered at 20 mg/kg): 0.2 µM
SMILES: COC(=O)c1ccc2c(c1)[nH]c1ncnc(NCCCN3CCCCC3)c12 [UM729]

SMILES: CC(C)C[C@@H](C=O)NC(=O)[C@H](CC(C)C)NC(=O)[C@H](CC(C)C)NC(=O)OCc1ccccc1 [MG132] (Cbz-Leu-Leu-Leu-aldehyde)
- UM171-induced loss of LSD1 and RCOR1 proteins under co-treatment [3]: abolishes the loss
- UM171-induced loss of RCOR1 under co-treatment [1]: reduced

- IC50 ([4]; read-out: Antineoplastic effect on cell proliferation, IC50, AML sample 04H063): 1 to 10 µM
- IC50 ([4]; read-out: Antineoplastic effect on cell proliferation, IC50, AML sample 05H094): 1 to 10 µM
- IC50 ([4]; read-out: Antineoplastic effect on cell proliferation, IC50, AML sample 05H149): 1 to 10 µM
- IC50 ([4]; read-out: Antineoplastic effect on cell proliferation, IC50, AML sample 06H045): 1 to 10 µM
- IC50 ([4]; read-out: Antineoplastic effect on cell proliferation, IC50, AML sample 06H088): 1 to 10 µM
- IC50 ([4]; read-out: Antineoplastic effect on cell proliferation, IC50, AML sample 06H117): 1 to 10 µM
- IC50 ([4]; read-out: Antineoplastic effect on cell proliferation, IC50, AML sample 07H005): 1 to 10 µM
- IC50 ([4]; read-out: Antineoplastic effect on cell proliferation, IC50, AML sample 07H038): 1 to 10 µM
- IC50 ([4]; read-out: Antineoplastic effect on cell proliferation, IC50, AML sample 07H045): 1 to 10 µM
- IC50 ([4]; read-out: Antineoplastic effect on cell proliferation, IC50, AML sample 07H125): 1 to 10 µM
- IC50 ([4]; read-out: Antineoplastic effect on cell proliferation, IC50, AML sample 07H135): 1 to 10 µM
- IC50 ([4]; read-out: Antineoplastic effect on cell proliferation, IC50, AML sample 07H151): 1 to 10 µM
- IC50 ([4]; read-out: Antineoplastic effect on cell proliferation, IC50, AML sample 08H018): 1 to 10 µM
- IC50 ([4]; read-out: Antineoplastic effect on cell proliferation, IC50, AML sample 09H010): 1 to 10 µM
- IC50 ([4]; read-out: Antineoplastic effect on cell proliferation, IC50, AML sample 09H046): 1 to 10 µM
- IC50 ([4]; read-out: Antineoplastic effect on cell proliferation, IC50, AML sample 09H079): 1 to 10 µM
- IC50 ([4]; read-out: Antineoplastic effect on cell proliferation, IC50, AML sample 09H115): 1 to 10 µM
- IC50 ([4]; read-out: Antineoplastic effect on cell proliferation, IC50, AML sample 10H022): 1 to 10 µM
- IC50 ([4]; read-out: Antineoplastic effect on cell proliferation, IC50, AML sample 10H127): 1 to 10 µM
- IC50 ([4]; read-out: Antineoplastic effect on cell proliferation, IC50, AML sample 11H002): 1 to 10 µM
- IC50 ([4]; read-out: Antineoplastic effect on cell proliferation, IC50, AML sample 11H046): 1 to 10 µM
- IC50 ([4]; read-out: Antineoplastic effect on cell proliferation, IC50, AML sample 11H103): 1 to 10 µM
- IC50 ([4]; read-out: Antineoplastic effect on cell proliferation, IC50, AML sample 12H045): 1 to 10 µM
- IC50 ([4]; read-out: Antineoplastic effect on cell proliferation, IC50, AML sample 12H058): 1 to 10 µM
- IC50 ([4]; read-out: Antineoplastic effect on cell proliferation, IC50, AML sample 12H096): 1 to 10 µM
- IC50 ([4]; read-out: Antineoplastic effect on cell proliferation, IC50, AML sample 12H106): 1 to 10 µM
- IC50 ([4]; read-out: Antineoplastic effect on cell proliferation, IC50, AML sample 12H151): 1 to 10 µM
- IC50 ([4]; read-out: Antineoplastic effect on cell proliferation, IC50, AML sample 13H100): 1 to 10 µM
- IC50 ([4]; read-out: Antineoplastic effect on cell proliferation, IC50, AML sample 13H150): 1 to 10 µM
SMILES: COC(=O)c1ccc2[nH]c3nc(Cc4ccccc4)nc(NCCCN4CCCCC4)c3c2c1 [UM134]
- IC50 [5]: 1 to 10 µM

- IC50 [6]: 1 to 2 µM
SMILES: COC(=O)c1ccc2c(c1)[nH]c1ncnc(N[C@H]3CC[C@H](N)CC3)c12

SMILES: N[C@@H]1C[C@H]1c1ccccc1 (racemic) [TCP, tranylcypromine]
- H3K27Ac and H3K4me2 marks [7]: induces
- CD34+, CD34+CD201+CD90+ and CD34+CD86+ subsets, combination with UM171 [8]: synergistic effect
- CD86 expression in shKBTBD4 expressing cells [9]: induces
- CD201 and CD86 expression compared to DMSO [10]: upregulation

- IC50 [6]: 2 to 5 µM
SMILES: COC(=O)c1ccc2c(c1)[nH]c1ncnc(NCCc3c[nH]c4ccccc34)c12

- IC50 [6]: 1 to 2 µM
SMILES: COC(=O)c1ccc2c(c1)[nH]c1ncnc(NCCCN)c12

- IC50 [6]: 1 to 2 µM
SMILES: Cn1nnc(-c2ccc3c(c2)[nH]c2ncnc(N[C@H]4CC[C@H](N)CC4)c23)n1

- IC50 [6]: 2 to 5 µM
SMILES: COC(=O)c1ccc2[nH]c3nc(Cc4ccccc4)nc(NCCCN4CCCCC4)c3c2c1 [drawing 103]

- IC50 [6]: 1 to 2 µM
SMILES: Cn1nnc(-c2ccc3c(c2)[nH]c2ncnc(NCCCN4CCCCC4)c23)n1 [drawing 53]

- IC50 [6]: 2 to 5 µM
SMILES: COC(=O)c1ccc2c(c1)[nH]c1nc(C(C)c3ccccc3)nc(NCCCN3CCCCC3)c12 (stereo not drawn)

- IC50 [6]: 1 to 2 µM
SMILES: COC(=O)c1ccc2c(c1)[nH]c1nc(C(OCc3ccccc3)c3ccccc3)nc(NCCCN3CCCCC3)c12 (stereo not drawn)

- IC50 [6]: 0.5 to 1 µM
SMILES: Cn1nnc(-c2ccc3c(c2)[nH]c2nc(Cc4ccccc4)nc(NCCCN4CCCCC4)c23)n1

- IC50 [6]: 0.5 to 1 µM
SMILES: CN(CCCN)CCCNc1nc(Cc2ccccc2)nc2[nH]c3cc(-c4nnn(C)n4)ccc3c12

- IC50 [6]: 2 to 5 µM
SMILES: COC(=O)c1ccc2c(c1)[nH]c1nc(C(=O)c3ccccc3)nc(NCCCN3CCCCC3)c12

- IC50 [6]: 0.5 to 1 µM
SMILES: COC(=O)c1ccc2c(c1)[nH]c1nc(Cc3ccc(Br)cc3)nc(NCCCN3CCCCC3)c12

- IC50 [6]: 1 to 2 µM
SMILES: Cn1nnc(-c2ccc3c(c2)[nH]c2ncnc(NCCCN4CCCC4)c23)n1
